# Reference: patent US5077204A, “Yeast endopeptidase for basic amino-acid site cleavage, preparation and use” (Chiron Corporation, priority 1988, dated 1991)
# Like-named read-outs stand apart in the source and are kept apart here. Peptide text beside a SMILES is read from it. * marks the point of attachment. AMC = Cc1cc(=O)oc2cc(N*)ccc12; Boc = CC(C)(C)OC(=O)*
# Legend:
# Assay type in all cases: biochemical, S. cerevisiae
# [1] = target: T1, KEX2 endopeptidase (kex2[YEp24-pJ2B] membranes) (Saccharomyces cerevisiae, UniProt P13134); test: Endopeptidase activity in membranes from kex2 cells carrying multicopy plasmid pJ2B (over-produced specific endopeptidase); details: for Relative Ratio: kex2[YEp24-pJ2B] relative to kex2[YEp24] = [1.0]; for Rate of hydrolysis (in words) / Rate of hydrolysis, membranes from kex2 cells carrying pJ2B versus membranes from kex2 cells carrying YEp24: membrane fractions; for Rate of hydrolysis (in words): endopeptidase substrates containing single arginine residues; for Rate of hydrolysis, membranes from kex2 cells carrying pJ2B versus membranes from kex2 cells carrying YEp24: depending on the experiment
# T1 construct: not only includes the KEX2 gene, but also the necessary transcriptional and translational regulatory signals for expression in yeast; expressed in transfected cells; host or cells: S. cerevisiae XBH16-15A (MATalpha kex2-1) carrying YEp24-pJ2B
# T1 sequence (P13134 114-814): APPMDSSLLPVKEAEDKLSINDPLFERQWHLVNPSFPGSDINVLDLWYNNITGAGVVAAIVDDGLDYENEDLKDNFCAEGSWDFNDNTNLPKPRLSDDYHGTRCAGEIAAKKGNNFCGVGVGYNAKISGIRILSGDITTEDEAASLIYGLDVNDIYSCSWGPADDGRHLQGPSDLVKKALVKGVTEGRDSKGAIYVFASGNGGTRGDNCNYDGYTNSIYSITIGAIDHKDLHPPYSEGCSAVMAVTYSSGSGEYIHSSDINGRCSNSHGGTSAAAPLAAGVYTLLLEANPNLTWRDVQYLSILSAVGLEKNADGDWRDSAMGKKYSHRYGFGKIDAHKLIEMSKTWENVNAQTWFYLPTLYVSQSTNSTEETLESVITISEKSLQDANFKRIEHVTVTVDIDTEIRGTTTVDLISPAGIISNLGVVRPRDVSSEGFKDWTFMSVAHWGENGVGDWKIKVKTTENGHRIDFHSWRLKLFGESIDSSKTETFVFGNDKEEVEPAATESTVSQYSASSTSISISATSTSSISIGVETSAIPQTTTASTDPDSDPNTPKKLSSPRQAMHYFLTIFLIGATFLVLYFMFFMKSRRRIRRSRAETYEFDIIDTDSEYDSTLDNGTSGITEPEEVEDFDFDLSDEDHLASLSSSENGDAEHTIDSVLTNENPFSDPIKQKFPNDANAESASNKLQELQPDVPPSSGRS
# Method: (§1) Permeabilization of whole yeast cells with the non-ionic detergent Brij 58, preparation of crude membrane fractions, and measurement of protein concentration were conducted by the methods described previously (Julius et al., 1983, supra), incorporated herein by reference. To measure peptidase activity, samples of permeabilized cells or membrane material were added to a reaction mixture containing 0.1-0.5 mM fluorogenic peptide substrate (added from a 20 mM stock dissolved in DMSO) and 200 mM HEPES-Tris (pH 7.0), in a final volume of 0.4 ml. Following incubation for 30 min at 37° C., whole cells were removed by centrifugation in a microfuge (Eppendorf) and membrane material was removed by Ba(OH)2 -ZnSO4 precipitation. The amount of fluorescence formed in the supernatant solution was determined in a fluorescence spectrophotometer (Perkin-Elmer, Model MPF-44B), set either at an excitation wavelength of 335 nm and an emission wavelength of 410 nm (for measurement of β-naphthylamine) or at an excitation wavelength of 380 nm and an emission wavelength of 460 nm (for measurement of 7-amino-4-methyl-coumarin, AMC). To determine the number of moles of substrate hydrolyzed, the fluorescence yield of samples was compared to a standard curve prepared with known concentrations of authentic AMC dissolved in the same buffer.
# (§2) Cells of strain XBH1615A that had been transformed with the plasmids
# (§3) indicated, or that contained pJ2B in integrated form, were grown in SCUra
# (§4) and membranes were prepared as described in the Experimental.
# (§5) Endopeptidase activity was assayed as described in the Experimental. All
# (§6) substrates tested were present at 0.1 mM.
# (§7) Endopeptidase activity was assayed using Boc--GlnArgArg--MCA as the
# (§8) substrate, as outlined in the Experimental. All inhibitors were added fro
# a 0.1 M stock dissolved in dimethyl sulfoxide.
# [2] = test system: background activity in membranes of kex2[YEp24] cells; test: Endopeptidase activity in membranes from kex2 cells transformed with the vector YEp24 alone (background activity); details: for Susceptibility of the background activity to inhibition: kex2 cells transformed with YEp24 alone
# Method: as §1, §2, §3, §4, §5, §6, §7, §8
# (§9) a 0.1 M stock dissolved in dimethyl sulfoxide. All values given were
# (§10) corrected for the slight effects of addition of this solvent alone.
# [3] = target: T2, KEX2 endopeptidase (kex2::pJ2B membranes) (Saccharomyces cerevisiae, UniProt P13134); test: Endopeptidase activity in membranes from kex2 cells containing pJ2B in integrated form; details: for Relative Ratio: kex2::pJ2B relative to kex2[YEp24] = [1.0]
# T2 construct: not only includes the KEX2 gene, but also the necessary transcriptional and translational regulatory signals for expression in yeast; expressed in transfected cells; host or cells: S. cerevisiae XBH16-15A (MATalpha kex2-1) containing pJ2B in integrated form; crude membranes
# Method: as §1, §2, §3, §4, §5, §6, §7, §8, §9, §10
# [4] = kex2[YEp24-pJ2B], inhibitor 1 mM, substrate Boc-GlnArgArg-MCA
# [5] = kex2[YEp24-pJ2B], inhibitor 5 mM, substrate Boc-GlnArgArg-MCA
# [6] = kex2 cells transformed with plasmid pJ2B, comparisons are to the background activity
# [7] = kex2[YEp24], inhibitor 1 mM, substrate Boc-GlnArgArg-MCA
# [8] = kex2[YEp24], inhibitor 5 mM, substrate Boc-GlnArgArg-MCA
# [9] = kex2::pJ2B, inhibitor 1 mM, substrate Boc-GlnArgArg-MCA
# [10] = kex2::pJ2B, inhibitor 5 mM, substrate Boc-GlnArgArg-MCA
# [11] = strain kex2[YEp24-pJ2B], substrate 0.1 mM, membranes
# [12] = strain kex2[YEp24], substrate 0.1 mM, membranes
# [13] = strain kex2::pJ2B, substrate 0.1 mM, membranes
smiles,measurement,setting,value
"O=S(=O)(F)Cc1ccccc1 [PMSF, phenylmethylsulfonyl fluoride]",Inhibition,[1]; [4],0%
same,Specific Activity,[1]; [4],116.7 pmoles/μg/10 min
same,Inhibition,[1]; [5],0%
same,Specific Activity,[1]; [5],110.2 pmoles/μg/10 min
same,Susceptibility of the specific KEX2 endopeptidase to inhibition or inactivation,[1]; [6],completely resistant
same,Inhibition,[2]; [7],45%
same,Specific Activity,[2]; [7],2.8 pmoles/μg/10 min
same,Inhibition,[2]; [8],71%
same,Specific Activity,[2]; [8],1.5 pmoles/μg/10 min
same,Susceptibility of the background activity to inhibition,[2],sensitive to inhibition
same,Inhibition,[3]; [9],17%
same,Specific Activity,[3]; [9],14.4 pmoles/μg/10 min
same,Inhibition,[3]; [10],16%
same,Specific Activity,[3]; [10],14.7 pmoles/μg/10 min
"CC[C@H](C)[C@H](NC(=O)OC(C)(C)C)C(=O)N[C@@H](CCC(=O)O)C(=O)NCC(=O)N[C@@H](CCCNC(=N)N)C(=O)Nc1ccc2c(C)cc(=O)oc2c1 [Boc--IleGluGlyArg--MCA, Boc-IleGluGlyArg-MCA] (Boc-IEGR-{AMC})",Relative Ratio,[1]; substrate 0.1 mM,19.3
same,Rate of hydrolysis (in words),[1],negligible rates
same,Specific Activity,[1]; [11],5.8 pmoles AMC formed/μg protein 10
same,Specific Activity,[2]; [12],0.3 pmoles AMC formed/μg protein 10
same,Relative Ratio,[3]; substrate 0.1 mM,3.0
same,Specific Activity,[3]; [13],0.9 pmoles AMC formed/μg protein 10
"Cc1cc(=O)oc2cc(NC(=O)[C@@H](N)CCCNC(=N)N)ccc12 [Arg--MCA, Arg-MCA]",Relative Ratio,[1]; substrate 0.1 mM,2.1
same,"Rate of hydrolysis, membranes from kex2 cells carrying pJ2B versus membranes from kex2 cells carrying YEp24",[1],no significant increase
same,Specific Activity,[1]; [11],14.0 pmoles AMC formed/μg protein 10
same,Specific Activity,[2]; [12],6.7 pmoles AMC formed/μg protein 10
same,Relative Ratio,[3]; substrate 0.1 mM,1.2
same,Specific Activity,[3]; [13],8.0 pmoles AMC formed/μg protein 10
C[S+](C)[O-] [dimethyl sulfoxide],Susceptibility of the specific KEX2 endopeptidase to inhibition or inactivation,[1]; [6],much less sensitive to inactivation
"Cc1cc(=O)oc2cc(NC(=O)[C@H](CCCNC(=N)N)NC(=O)[C@H](CO)NC(=O)[C@H](Cc3ccccc3)NC(=O)OC(C)(C)C)ccc12 [Boc--PheSerArg--MCA, Boc-PheSerArg-MCA] (Boc-Phe-Ser-Arg-{AMC})",Relative Ratio,[1]; substrate 0.1 mM,51.7
same,"Rate of hydrolysis relative to Boc-GlnArgArg-MCA, times more slowly",[1]; membrane fractions of kex2 cells carrying pJ2B,about three times more slowly
same,Specific Activity,[1]; [11],31.0 pmoles AMC formed/μg protein 10
same,Specific Activity,[2]; [12],0.6 pmoles AMC formed/μg protein 10
same,Relative Ratio,[3]; substrate 0.1 mM,6.3
same,Specific Activity,[3]; [13],3.8 pmoles AMC formed/μg protein 10
O=C(O)CI [iodoacetic acid],Susceptibility of the specific KEX2 endopeptidase to inhibition or inactivation,[1],more susceptible to inhibition
NC=O [formamide],Susceptibility of the specific KEX2 endopeptidase to inhibition or inactivation,[1]; [6],much less sensitive to inactivation
"Cc1cc(=O)oc2cc(NC(=O)[C@H](CCCNC(=N)N)NC(=O)c3ccccc3)ccc12 [Bz--Arg--MCA, Bz-Arg-MCA]",Relative Ratio,[1]; substrate 0.1 mM,6.0
same,Rate of hydrolysis (in words),[1],negligible rates
same,Specific Activity,[1]; [11],0.6 pmoles AMC formed/μg protein 10
same,Specific Activity,[2]; [12],0.1 pmoles AMC formed/μg protein 10
same,Relative Ratio,[3]; substrate 0.1 mM,1.0
same,Specific Activity,[3]; [13],0.1 pmoles AMC formed/μg protein 10
"Cc1ccc(S(=O)(=O)NC(Cc2ccccc2)C(=O)CCl)cc1 (centres unmarked) [TPCK, tosyl-phenylalanine-chloromethylketone]",Specific Activity,[1]; [4],105.9 pmoles/μg/10 min
same,inhibition at 1000 µM,[1]; [4],2%
same,Specific Activity,[1]; [5],109.2 pmoles/μg/10 min
same,inhibition at 5000 µM,[1]; [5],0%
same,Susceptibility of the specific KEX2 endopeptidase to inhibition or inactivation,[1]; [6],completely resistant
same,Inhibition,[2]; [7],57%
same,Specific Activity,[2]; [7],2.2 pmoles/μg/10 min
same,Inhibition,[2]; [8],73%
same,Specific Activity,[2]; [8],1.4 pmoles/μg/10 min
same,Susceptibility of the background activity to inhibition,[2],sensitive to inhibition
same,inhibition at 1000 µM,[3],18%
same,inhibition at 5000 µM,[3],13%
same,Specific Activity,[3]; [9],14.3 pmoles/μg/10 min
same,Specific Activity,[3]; [10],15.2 pmoles/μg/10 min
"Cc1ccc(S(=O)(=O)NC(CCCCN)C(=O)CCl)cc1 (centres unmarked) [TLCK, tosyl-lysine-chloromethylketone]",Specific Activity,[1]; [4],100.8 pmoles/μg/10 min
same,inhibition at 1000 µM,[1]; [4],7%
same,Specific Activity,[1]; [5],95.5 pmoles/μg/10 min
same,inhibition at 5000 µM,[1]; [5],12%
same,Susceptibility of the specific KEX2 endopeptidase to inhibition or inactivation,[1]; [6],completely resistant
same,Inhibition,[2]; [7],55%
same,Specific Activity,[2]; [7],2.3 pmoles/μg/10 min
same,Inhibition,[2]; [8],65%
same,Specific Activity,[2]; [8],1.8 pmoles/μg/10 min
same,Susceptibility of the background activity to inhibition,[2],sensitive to inhibition
same,inhibition at 1000 µM,[3],16%
same,inhibition at 5000 µM,[3],17%
same,Specific Activity,[3]; [9],14.6 pmoles/μg/10 min
same,Specific Activity,[3]; [10],14.5 pmoles/μg/10 min
NC(=O)CI [iodoacetamide],Susceptibility of the specific KEX2 endopeptidase to inhibition or inactivation,[1]; [6],more susceptible to inhibition
"Cc1cc(=O)oc2cc(NC(=O)[C@@H](N)CC(C)C)ccc12 [Leu--MCA, Leu-MCA]",Relative Ratio,[1]; substrate 0.1 mM,2.1
same,"Rate of hydrolysis, membranes from kex2 cells carrying pJ2B versus membranes from kex2 cells carrying YEp24",[1],no significant increase
same,Specific Activity,[1]; [11],69.8 pmoles AMC formed/μg protein 10
same,Specific Activity,[2]; [12],33.7 pmoles AMC formed/μg protein 10
same,Relative Ratio,[3]; substrate 0.1 mM,1.1
same,Specific Activity,[3]; [13],37.9 pmoles AMC formed/μg protein 10
CO [methanol],Susceptibility of the specific KEX2 endopeptidase to inhibition or inactivation,[1],much less sensitive to inactivation
